In brackets after ≈: the same amount, converted by molar mass. Activity calls are given as the source filed them. The rule behind the calls is not given here.
Tests used:
Penicillium chrysogenum [1] = test: Antimicrobial activity against Penicillium chrysogenum at 25 ug/well after 48 hrs by agar well diffusion method; type: functional; conditions: read-out: DIZ
Escherichia coli [2] = test: Antimicrobial activity against Escherichia coli ATCC 25922 after 24 hrs by broth dilution method; type: functional; conditions: ATCC 25922, 24 h
Penicillium chrysogenum [3] = test: Antimicrobial activity against Penicillium chrysogenum after 24 hrs; type: functional
Staphylococcus aureus [4] = test: Antimicrobial activity against Staphylococcus aureus at 100 ug/well after 24 hrs by agar well diffusion method; type: functional; conditions: read-out: DIZ
Penicillium chrysogenum [5] = test: Antimicrobial activity against Penicillium chrysogenum at 50 ug/well after 48 hrs by agar well diffusion method; type: functional; conditions: read-out: DIZ
Aspergillus niger [6] = test: Antimicrobial activity against Aspergillus niger at 25 ug/well after 48 hrs by agar well diffusion method; type: functional; conditions: read-out: DIZ
Aspergillus niger [7] = test: Antimicrobial activity against Aspergillus niger after 24 hrs by broth dilution method; type: functional
Penicillium chrysogenum [8] = test: Ratio of MBC to MIC for Penicillium chrysogenum; type: functional
Pseudomonas aeruginosa [9] = test: Ratio of MBC to MIC for Pseudomonas aeruginosa ATCC 27853; type: functional
Pseudomonas aeruginosa [10] = test: Antimicrobial activity against Pseudomonas aeruginosa ATCC 27853 after 24 hrs by broth dilution method; type: functional; conditions: ATCC 27853, 24 h
A549 = test: Cytotoxicity against human A549 cells assessed as reduction in cell viability up to 200 uM after 20 hrs by MTT assay; type: functional, cell-based
Staphylococcus aureus [11] = test: Ratio of MBC to MIC for Staphylococcus aureus ATCC 25923; type: functional
Penicillium chrysogenum [12] = test: Antimicrobial activity against Penicillium chrysogenum at 100 ug/well after 48 hrs by agar well diffusion method; type: functional; conditions: read-out: DIZ
Pseudomonas aeruginosa [13] = test: Antimicrobial activity against Pseudomonas aeruginosa ATCC 27853 after 24 hrs; type: functional; conditions: ATCC 27853, 24 h
Escherichia coli [14] = test: Ratio of MBC to MIC for Escherichia coli ATCC 25922; type: functional
Aspergillus niger [15] = test: Antimicrobial activity against Aspergillus niger at 100 ug/well after 48 hrs by agar well diffusion method; type: functional; conditions: read-out: DIZ
Pseudomonas aeruginosa [16] = test: Antimicrobial activity against Pseudomonas aeruginosa at 100 ug/well after 24 hrs by agar well diffusion method; type: functional; conditions: read-out: DIZ
Staphylococcus aureus [17] = test: Antimicrobial activity against Staphylococcus aureus at 25 ug/well after 24 hrs by agar well diffusion method; type: functional; conditions: read-out: DIZ
Pseudomonas aeruginosa [18] = test: Antimicrobial activity against Pseudomonas aeruginosa at 50 ug/well after 24 hrs by agar well diffusion method; type: functional; conditions: read-out: DIZ
Staphylococcus aureus [19] = test: Antimicrobial activity against Staphylococcus aureus at 50 ug/well after 24 hrs by agar well diffusion method; type: functional; conditions: read-out: DIZ
Aspergillus niger [20] = test: Ratio of MBC to MIC for Aspergillus niger; type: functional
Escherichia coli [21] = test: Antimicrobial activity against Escherichia coli at 50 ug/well after 24 hrs by agar well diffusion method; type: functional; conditions: read-out: DIZ
Staphylococcus aureus [22] = test: Antimicrobial activity against Staphylococcus aureus ATCC 25923 after 24 hrs; type: functional; conditions: ATCC 25923, 24 h
Escherichia coli [23] = test: Antimicrobial activity against Escherichia coli at 25 ug/well after 24 hrs by agar well diffusion method; type: functional; conditions: read-out: DIZ
Penicillium chrysogenum [24] = test: Antimicrobial activity against Penicillium chrysogenum after 24 hrs by broth dilution method; type: functional
Staphylococcus aureus [25] = test: Antimicrobial activity against Staphylococcus aureus ATCC 25923 after 24 hrs by broth dilution method; type: functional; conditions: ATCC 25923, 24 h
Escherichia coli [26] = test: Antimicrobial activity against Escherichia coli ATCC 25922 after 24 hrs; type: functional; conditions: ATCC 25922, 24 h
Pseudomonas aeruginosa [27] = test: Antimicrobial activity against Pseudomonas aeruginosa at 25 ug/well after 24 hrs by agar well diffusion method; type: functional; conditions: read-out: DIZ
Aspergillus niger [28] = test: Antimicrobial activity against Aspergillus niger after 24 hrs; type: functional
Aspergillus niger [29] = test: Antimicrobial activity against Aspergillus niger at 50 ug/well after 48 hrs by agar well diffusion method; type: functional; conditions: read-out: DIZ
Escherichia coli [30] = test: Antimicrobial activity against Escherichia coli at 100 ug/well after 24 hrs by agar well diffusion method; type: functional; conditions: read-out: DIZ

SMILES | zone of inhibition at 25 µg/disc (Penicillium chrysogenum [1]) | MIC (Escherichia coli [2]) | MFC (Penicillium chrysogenum [3]) | zone of inhibition at 100 µg/disc (Staphylococcus aureus [4]) | zone of inhibition at 50 µg/disc (Penicillium chrysogenum [5]) | zone of inhibition at 25 µg/disc (Aspergillus niger [6]) | MIC (Aspergillus niger [7]) | Ratio (Penicillium chrysogenum [8]) | Ratio (Pseudomonas aeruginosa [9]) | MIC (Pseudomonas aeruginosa [10]) | Activity (A549) | Ratio (Staphylococcus aureus [11]) | zone of inhibition at 100 µg/disc (Penicillium chrysogenum [12]) | MBC (Pseudomonas aeruginosa [13]) | Ratio (Escherichia coli [14]) | zone of inhibition at 100 µg/disc (Aspergillus niger [15]) | zone of inhibition at 100 µg/disc (Pseudomonas aeruginosa [16]) | zone of inhibition at 25 µg/disc (Staphylococcus aureus [17]) | zone of inhibition at 50 µg/disc (Pseudomonas aeruginosa [18]) | zone of inhibition at 50 µg/disc (Staphylococcus aureus [19]) | further results
Cc1cc(SCc2nc3ccccc3s2)nc(SCc2nc3ccccc3s2)n1 | 30 mm | 100 µg/mL (≈ 221 µM) | 200 µg/mL (≈ 442 µM) | 25 mm | 32 mm | 24 mm | 50 µg/mL (≈ 110 µM) | >2 | >2 | 50 µg/mL (≈ 110 µM) | inactive | >2 | 35 mm | 200 µg/mL (≈ 442 µM) | >2 | 28 mm | 24 mm | 21 mm | 21 mm | 23 mm | Ratio (Aspergillus niger [20]): >2; zone of inhibition at 50 µg/disc (Escherichia coli [21]): 28 mm; MBC (Staphylococcus aureus [22]): 200 µg/mL (≈ 442 µM); zone of inhibition at 25 µg/disc (Escherichia coli [23]): 24 mm; MIC (Penicillium chrysogenum [24]): 50 µg/mL (≈ 110 µM); MIC (Staphylococcus aureus [25]): 50 µg/mL (≈ 110 µM); MBC (Escherichia coli [26]): > 200 µg/mL; zone of inhibition at 25 µg/disc (Pseudomonas aeruginosa [27]): 19 mm; MFC (Aspergillus niger [28]): > 200 µg/mL; zone of inhibition at 50 µg/disc (Aspergillus niger [29]): 25 mm; zone of inhibition at 100 µg/disc (Escherichia coli [30]): 30 mm
Cc1cc(SCc2nc3ccccc3o2)nc(SCc2nc3ccccc3o2)n1 | 28 mm | 100 µg/mL (≈ 238 µM) | > 200 µg/mL | 23 mm | 30 mm | 20 mm | 100 µg/mL (≈ 238 µM) | >2 | >2 | 100 µg/mL (≈ 238 µM) | inactive | >2 | 33 mm | > 200 µg/mL | >2 | 24 mm | 22 mm | 20 mm | 20 mm | 22 mm | Ratio (Aspergillus niger [20]): >2; zone of inhibition at 50 µg/disc (Escherichia coli [21]): 24 mm; MBC (Staphylococcus aureus [22]): > 200 µg/mL; zone of inhibition at 25 µg/disc (Escherichia coli [23]): 21 mm; MIC (Penicillium chrysogenum [24]): 100 µg/mL (≈ 238 µM); MIC (Staphylococcus aureus [25]): 50 µg/mL (≈ 119 µM); MBC (Escherichia coli [26]): > 200 µg/mL; zone of inhibition at 25 µg/disc (Pseudomonas aeruginosa [27]): 17 mm; MFC (Aspergillus niger [28]): > 200 µg/mL; zone of inhibition at 50 µg/disc (Aspergillus niger [29]): 22 mm; zone of inhibition at 100 µg/disc (Escherichia coli [30]): 29 mm
